The values that follow are results of earlier work, collected in patent US10071030B2, “Carrier comprising non-neutralised tocopheryl phosphate” (Phosphagenics Limited, priority 2010, dated 2018).

The conditions of the data set: from dietary sources.

As to `COC1=C(OC)C(=O)C(C/C=C(\C)CC/C=C(\C)CC/C=C(\C)CC/C=C(\C)CC/C=C(\C)CC/C=C(\C)CC/C=C(\C)CC/C=C(\C)CC/C=C(\C)CCC=C(C)C)=C(C)C1=O` [CoQ10, ubiquinone], the “bioavailable fraction of CoQ10” value is 5 to 10%.
